Results reported in patent publication US20240182449A1, “CRYSTALLINE FORMS OF AN MK2 INHIBITOR” (XinThera, Inc., priority 2022, published 2024).
In brackets after ≈: the same amount, converted by molar mass. Several values for one entry are separate records, joined by “and”; a condition that tells them apart may be missing. Identical values can stand only once. Entries after “also recorded” stand apart in the source; their conditions may differ.

How the values were obtained:
[1] = Solubility estimation at RT by visual observation in selected solvent systems
Protocol: The solubility of compound 1 Form I and Form X was estimated at RT by visual observation in selected solvent systems. Approximately 5 mg solids were weighed into 8 mL glass vial, and then solvent was added stepwise until solids were dissolved completely or a total of solvent volume reached 5 mL.

[2] = Slurry conversion of Form I and Form X in solvents (XRPD result); type: physicochemical; conditions: for XRPD Result-Day 3: slurry at 80° C.
Protocol: Appropriate amount of Form I was added into different solvents to make suspensions, which were kept stirring at RT and 50° C. for 3 and 7 days, and at 80° C. for 3 days. Solid samples were collected by centrifugation and analyzed by XRPD. Forms I-IV, VII and VIII were obtained by slurry experiments of Form I.
Appropriate amount of Form X was added into different solvents to make suspensions, which were kept stirring at RT and 50° C. for 3 and 7 days, and at 80° C. for 3 days. Solid samples were collected by centrifugation and analyzed by XRPD.

[3] = Mechanical stability (manual grinding, XRPD); type: physicochemical
Protocol: Appropriate amount of Form X was manually ground by pestle and mortar for about 2 minutes and 5 minutes, and then analyzed by XRPD.

[4] = Solid-state stability (HPLC purity and XRPD); type: physicochemical; conditions: for solid-state stability (form change, purity): 7 days
Protocol: Solid-state stability of Form X was conducted at 60° C. (capped) and 40° C./75% RH (open) for 7 days. The stability sample was dissolved in diluent to prepare solution at ˜1 mg/mL for HPLC purity analysis. Solid samples were analyzed by XRPD to check the crystal form.

Hygroscopicity by DVS = type: physicochemical
Protocol: DVS was performed on Form X, to evaluate its hygroscopicity and physical stability under different humidity.
Moisture sorption/desorption data were collected on a DVS instrument. Appropriate amount of sample was placed into a tared sample chamber and automatically weighed. The sample was analyzed with the setting parameters in the table below.

[5] = Solubility in bio-relevant media (SGF, FaSSIF, FeSSIF) and water; type: physicochemical; conditions: for Solubility: 37° C.
Protocol: The solubility of Form X was measured in bio-relevant media (SGF, FaSSIF and FeSSIF) and water at 37° C. with 800 rpm for up to 24 hours. About 15 mg of Form X was weighed into sample vials and then 3 mL of three bio-relevant media and water were added to make suspensions, respectively. At 0.5, 2 and 24 hours, about 1 mL of each suspension was filtered, the filtrates were analyzed by HPLC and pH, and the filter cakes were analyzed by XRPD. Duplicate samples were prepared. […] A little higher solubility in FeSSIF was possibly due to the effect of bile salt.

[6] = Slurry competition experiments (thermodynamic stability relationship); type: physicochemical; conditions: RT, also in pure water
Protocol: Slurry competition experiments were carried out between anhydrous and hydrates, to establish stability relationships. Appropriate amount of Form I was suspended in different solvents for pre-saturation at RT. Then the filtrate was added into equal amount of different forms, and the mixture was kept stirring at RT for certain time before XRPD tests.

pH solubility profile = type: physicochemical
Protocol: Different pH buffers (pH 1.0, 3.0, 5.0, 6.8 and 9.0) were prepared by method in Table 20. Then 10 mg of Form X was added into 2 mL of different buffers (pH=1.0, 3.0, 5.0, 6.8 and 9.0) to make suspensions. The suspensions were kept shaking with a speed of 1000 rpm at 25° C. for 4 and 24 hours. At each point, the suspensions were centrifuged, and the supernatant was inspected by HPLC/pH, and the wet cakes were analyzed by XRPD. Duplicate samples were prepared.

[7] = slurry at 50° C., Acetone/water (1/3)
[8] = slurry at 50° C., MeOH/Water (1/4)
[9] = slurry at RT, Acetone/water (1/3)

In the case of `[2H]C([2H])(Oc1cc(C)n(-c2c(C)cnc(-n3ccc(C(C)(C)O)n3)c2F)c(=O)c1Cl)c1ncc(F)cc1F` [Form X], the “estimated solubility compared with Form I” value [1] is reported as “decreased solubility in some solvents”, the “XRPD Result Day 3” value [2, 7] is reported as “Form X” and the “XRPD Result Day 7” value [2, 7] is reported as “Form X”. The “XRPD Result Day 3” value ([2]; slurry at 50° C., IPA) was “Form X”, the “XRPD Result Day 7” value ([2]; slurry at 50° C., IPA) was “Form X” and the “XRPD Result Day 3” value ([2]; slurry at 50° C., IPE) was “Form X”. For the same molecule, the “XRPD Result Day 7” value ([2]; slurry at 50° C., IPE) was “Form X”, the “XRPD Result Day 3” value ([2]; slurry at 50° C., MTBE) was “Form X” and the “XRPD Result Day 7” value ([2]; slurry at 50° C., MTBE) was “Form III”. The “XRPD Result Day 3” value [2, 8] was “Form X”, the “XRPD Result Day 7” value [2, 8] was “Form X” and the “XRPD Result Day 3” value ([2]; slurry at 50° C., Toluene) was “Form X”. The “XRPD Result Day 7” value ([2]; slurry at 50° C., Toluene) was “Form X”, the “XRPD Result Day 3” value ([2]; slurry at 50° C., Water) was “Form X” and the “XRPD Result Day 7” value ([2]; slurry at 50° C., Water) was “Form X”. For the same molecule, the “XRPD Result-Day 3” value ([2]; CYH) was “Form X”, the “XRPD Result-Day 3” value ([2]; Heptane) was “Form X” and the “XRPD Result-Day 3” value ([2]; IPA/Water (1/2)) was “Clear”. For the same molecule, the “XRPD Result-Day 3” value ([2]; IPA/Water (1/3)) was “Form X”, the “XRPD Result-Day 3” value ([2]; IPAc/Heptane (1/2)) was “Form X” and the “XRPD Result-Day 3” value ([2]; MeCYH) was “Form X”. For the same molecule, the “XRPD Result-Day 3” value ([2]; Water) was “Form X”, the “XRPD Result Day 3” value [2, 9] was “Form X” and the “XRPD Result Day 7” value [2, 9] was “Form X”. For the same molecule, the “XRPD Result Day 3” value ([2]; slurry at RT, EtOH) was “Clear”, the “XRPD Result Day 7” value ([2]; slurry at RT, EtOH) was “Clear” and the “XRPD Result Day 3” value ([2]; slurry at RT, IPA) was “Form X”. The “XRPD Result Day 7” value ([2]; slurry at RT, IPA) was “Form X”, the “XRPD Result Day 3” value ([2]; slurry at RT, IPAc) was “Form X” and the “XRPD Result Day 7” value ([2]; slurry at RT, IPAc) was “Form X”. The “XRPD Result Day 3” value ([2]; slurry at RT, IPE) was “Form X”, the “XRPD Result Day 7” value ([2]; slurry at RT, IPE) was “Form X” and the “XRPD Result Day 3” value ([2]; slurry at RT, MIBK) was “Form X”. For the same molecule, the “XRPD Result Day 7” value ([2]; slurry at RT, MIBK) was “Form X”, the “XRPD Result Day 3” value ([2]; slurry at RT, MTBE) was “Form III” and the “XRPD Result Day 7” value ([2]; slurry at RT, MTBE) was “Form III”. For the same molecule, the “XRPD Result Day 3” value ([2]; slurry at RT, MeOH/water (1/4)) was “Form X”, the “XRPD Result Day 7” value ([2]; slurry at RT, MeOH/water (1/4)) was “Form X” and the “XRPD Result Day 3” value ([2]; slurry at RT, Toluene) was “Form X”. For the same molecule, the “XRPD Result Day 7” value ([2]; slurry at RT, Toluene) was “Form X”, the “XRPD Result Day 3” value ([2]; slurry at RT, Water) was “Form X” and the “XRPD Result Day 7” value ([2]; slurry at RT, Water) was “Form X”. For the same molecule, the “Crystallinity after manual grinding” value ([3]; manual grinding) was “with slight crystallinity decrease after”, the “crystal form after grinding” value ([3]; manually ground about 2 and 5 minutes) was “remained unchanged with slight crystallinity decrease” and the “Stability (physical)” value ([4]; 40° C./75% RH (open), 1 week) was “Physically stable at 40° C./75% RH (open)”. For the same molecule, the “XRPD Result” value ([4]; 40° C./75% RH (open), 1 week) was “Form X”, the “Purity (area %)” value ([4]; 40° C./75% RH (open), 1 week, duplicate samples) was 99.94 area % and 99.93 area % and the “solid-state stability (form change, purity)” value ([4]; 40° C./75% RH (open)) was “physically and chemically stable; also recorded: No form change or purity decrease”. The “XRPD Result” value ([4]; 60° C. (capped), 1 week) was “Form X”, the “Purity (area %)” value ([4]; 60° C. (capped), 1 week, duplicate samples) was 99.93 area % and 99.94 area % and the “solid-state stability (form change, purity)” value ([4]; 60° C. (capped)) was “physically and chemically stable; also recorded: No form change or purity decrease”. For the same molecule, the “Stability (physical)” value ([4]; 60° C., 1 week) was “Physically stable at 40° C./75% RH (open)”, the “Purity (area %)” value ([4]; Initial) was 99.94 area % and the “XRPD Result” value ([4]; Initial) was “Form X”. The “XRPD after DVS” value (Hygroscopicity by DVS) was “No change”, the hygroscopicity (Hygroscopicity by DVS; DVS) was “non-hygroscopic” and the water uptake (Hygroscopicity by DVS; DVS, 80% RH) was 0.11%. The water uptake (Hygroscopicity by DVS; DVS, 90% RH) was 0.16%, the “crystal form after DVS test” value (Hygroscopicity by DVS; after DVS test) was “remained unchanged” and the “DVS Wt. Gain %” value (Hygroscopicity by DVS; at 80% RH) was 0.11%. The “DVS Wt. Gain %” value (Hygroscopicity by DVS; at 90% RH) was 0.16%, the “Hygroscopicity (DVS)” value (Hygroscopicity by DVS; classification in words) was “non-hygroscopic” and the “XRPD of filter cake after solubility test” value ([5]; 0.5/2/24 h, all media (SGF, FaSSIF, FeSSIF, water)) was “^a Form X remained unchanged during solubility test in all media”. For the same molecule, the Solubility ([5]; FaSSIF, 0.5 h) was 0.069 mg/mL (≈ 132 µM), the Solubility ([5]; FaSSIF, 2 h) was 0.070 mg/mL (≈ 134 µM) and the Solubility ([5]; FaSSIF, 24 h) was 0.074 mg/mL (≈ 142 µM). It also gave a Solubility ([5]; FeSSIF, 0.5 h) of 0.097 mg/mL (≈ 186 µM), a Solubility ([5]; FeSSIF, 2 h) of 0.097 mg/mL (≈ 186 µM) and a Solubility ([5]; FeSSIF, 24 h) of 0.124 mg/mL (≈ 238 µM). It also gave a Solubility ([5]; SGF, 0.5 h) of 0.074 mg/mL (≈ 142 µM), a Solubility ([5]; SGF, 2 h) of 0.070 mg/mL (≈ 134 µM) and a Solubility ([5]; SGF, 24 h) of 0.066 mg/mL (≈ 126 µM). For the same molecule, the Solubility ([5]; Water, 0.5 h) was 0.074 mg/mL (≈ 142 µM), the Solubility ([5]; Water, 2 h) was 0.074 mg/mL (≈ 142 µM) and the Solubility ([5]; Water, 24 h) was 0.070 mg/mL (≈ 134 µM). For the same molecule, the “crystal form after solubility test” value ([5]; all media, XRPD of filter cake) was “remained unchanged”, the “thermodynamic stability in slurry competition of anhydrous forms and hydrates” value [6] was “thermodynamically more stable even in pure water at room temperature; also recorded: thermodynamically stable even in pure water” and the “XRPD of wet cake after pH solubility test” value (pH solubility profile; 4/24 h, all pH buffers) was “Unchanged”. For the same molecule, the “crystal form after pH solubility test” value (pH solubility profile; XRPD of wet cake) was “remained unchanged”, the “Solubility (1T/2T, mg/mL)” value (pH solubility profile; pH 1.0, 25° C., 4 h) was 0.074 mg/mL (≈ 142 µM) and the “Solubility (1T/2T, mg/mL)” value (pH solubility profile; pH 1.0, 25° C., 24 h) was 0.075 mg/mL (≈ 144 µM). The pH-dependence of solubility (pH solubility profile; pH 1.0-9.0 buffers, 25° C.) was “no pH-dependence”, the “Solubility (1T/2T, mg/mL)” value (pH solubility profile; pH 3.0 buffer, 25° C., 4 h) was 0.060 mg/mL (≈ 115 µM) and the “Solubility (1T/2T, mg/mL)” value (pH solubility profile; pH 3.0 buffer, 25° C., 24 h) was 0.073 mg/mL (≈ 140 µM). The “Solubility (1T/2T, mg/mL)” value (pH solubility profile; pH 5.0 buffer, 25° C., 4 h) was 0.061 mg/mL (≈ 117 µM), the “Solubility (1T/2T, mg/mL)” value (pH solubility profile; pH 5.0 buffer, 25° C., 24 h) was 0.060 mg/mL (≈ 115 µM) and the “Solubility (1T/2T, mg/mL)” value (pH solubility profile; pH 6.8 buffer, 25° C., 4 h) was 0.060 mg/mL (≈ 115 µM). For the same molecule, the “Solubility (1T/2T, mg/mL)” value (pH solubility profile; pH 6.8 buffer, 25° C., 24 h) was 0.060 mg/mL (≈ 115 µM), the “Solubility (1T/2T, mg/mL)” value (pH solubility profile; pH 9.0 buffer, 25° C., 4 h) was 0.060 mg/mL (≈ 115 µM) and the “Solubility (1T/2T, mg/mL)” value (pH solubility profile; pH 9.0 buffer, 25° C., 24 h) was 0.062 mg/mL (≈ 119 µM).
